The values below come from US9796733B2, “Imidazo-pyrazine derivatives useful as soluble guanylate cyclase activators” (Merck Sharp & Dohme Corp., priority 2014, dated 2017).

A word on the EC50: it is the concentration that produces a half-maximal response. High values mean a need for much substance, low ones an effect from little substance.

The test concerns the target T1, sGC α1/β1 heterodimer (Homo sapiens, UniProt Q02108+Q02153).
T1 construct: expressed in transfected cells; host or cells: CHO-K1 (clone #7, CHO-K1/sGC)
T1 sequence (Q02108 1-690): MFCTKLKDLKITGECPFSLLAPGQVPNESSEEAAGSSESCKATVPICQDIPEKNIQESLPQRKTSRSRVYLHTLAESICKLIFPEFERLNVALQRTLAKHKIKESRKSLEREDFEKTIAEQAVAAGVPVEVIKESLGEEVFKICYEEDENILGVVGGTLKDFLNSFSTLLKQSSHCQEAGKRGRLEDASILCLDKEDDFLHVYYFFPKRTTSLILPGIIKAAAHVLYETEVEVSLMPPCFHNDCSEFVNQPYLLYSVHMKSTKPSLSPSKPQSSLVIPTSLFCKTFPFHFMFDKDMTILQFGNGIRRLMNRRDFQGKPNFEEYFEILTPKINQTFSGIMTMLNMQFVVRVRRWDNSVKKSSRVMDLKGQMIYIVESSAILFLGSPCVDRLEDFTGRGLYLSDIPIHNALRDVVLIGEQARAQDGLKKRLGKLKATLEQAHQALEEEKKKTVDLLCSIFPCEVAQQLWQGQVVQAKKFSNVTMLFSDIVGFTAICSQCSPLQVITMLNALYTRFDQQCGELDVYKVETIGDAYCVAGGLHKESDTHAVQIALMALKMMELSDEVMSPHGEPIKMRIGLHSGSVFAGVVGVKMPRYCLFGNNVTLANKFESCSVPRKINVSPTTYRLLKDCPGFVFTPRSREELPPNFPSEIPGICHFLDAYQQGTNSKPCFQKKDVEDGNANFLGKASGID
T1 sequence (Q02153 1-619): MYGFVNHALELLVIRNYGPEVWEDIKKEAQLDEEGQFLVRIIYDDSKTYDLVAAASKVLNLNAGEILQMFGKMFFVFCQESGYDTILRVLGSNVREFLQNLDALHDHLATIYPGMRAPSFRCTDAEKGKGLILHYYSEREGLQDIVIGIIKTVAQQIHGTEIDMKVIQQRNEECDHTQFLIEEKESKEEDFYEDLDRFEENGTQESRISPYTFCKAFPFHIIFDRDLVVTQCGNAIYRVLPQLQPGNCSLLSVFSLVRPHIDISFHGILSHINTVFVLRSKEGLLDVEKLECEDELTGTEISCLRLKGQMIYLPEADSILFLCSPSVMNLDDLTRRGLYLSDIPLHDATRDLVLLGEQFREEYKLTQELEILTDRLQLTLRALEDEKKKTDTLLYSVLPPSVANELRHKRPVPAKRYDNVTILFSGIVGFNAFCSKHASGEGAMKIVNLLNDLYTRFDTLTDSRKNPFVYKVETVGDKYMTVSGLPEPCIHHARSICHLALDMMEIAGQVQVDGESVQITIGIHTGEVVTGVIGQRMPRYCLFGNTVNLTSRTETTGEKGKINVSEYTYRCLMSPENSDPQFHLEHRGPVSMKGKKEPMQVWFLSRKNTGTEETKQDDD
Description: Cell-based sGC functional assay (CASA assay): cGMP generation in CHO-K1/sGC cells, HTRF detection. The note with it: for Emax: CHO-K1, percent activation relative to standard Compound A in CHO-K1/sGC cells, read-out: % Act.; for EC50: inflection point (IP) of cGMP generation in CHO-K1/sGC cells, 4P fit, activity expressed as percentage of Compound A. In short, it runs like this:
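cGMP was quantified by HTRF after 1 hr, 37° C exposure of thawed CHO-K1 cells expressing sGC α1/β1 to compound, with or without 1 μM DETA-NO. IBMX (0.5 mM) blocked cGMP breakdown, and DMSO was 2.5% final. Percent of standard Compound A's maximal cGMP was fitted (4P) for inflection point.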
In general terms: TR-FRET usually uses a lanthanide donor and a delayed reading to cut background.

Regarding `CC1(c2ccc(F)cc2)C(=O)Nc2nc(-c3cn4ccnc4c(CCc4ccccc4F)n3)nc(N)c21` (centres unmarked) [Example 3A, 4-amino-2-(8-(2-fluorophenethyl)imidazo[1,2-a]pyrazin-6-yl)-5-(4-fluorophenyl)-5-methyl-5H-pyrrolo[2,3-d]pyrimidin-6(7H)-one], the Emax came to 139% and the EC50 amounted to 19 nM.

In the case of `CC1(c2ccc(F)cn2)C(=O)Nc2nc(-c3cn4ccnc4c(CCC(F)(F)C(F)(F)F)n3)nc(N3CCOCC3)c21` (centres unmarked) [Example 294B, 5-(5-fluoropyridin-2-yl)-5-methyl-4-morpholino-2-(8-(3,3,4,4,4-pentafluorobutyl)imidazo[1,2-a]pyrazin-6-yl)-5H-pyrrolo[2,3-d]pyrimidin-6(7H)-one], the Emax turned out to be 89% and a half-maximal response (EC50) required 444 nM.

Take `CCC1(C2CC2)C(=O)Nc2nc(-c3cn4ccnc4c(Cc4ccccc4)n3)nc(N)c21` (single isomer, unassigned) [Example 77A, 4-amino-2-(8-benzylimidazo[1,2-a]pyrazin-6-yl)-5-cyclopropyl-5-ethyl-5H-pyrrolo[2,3-d]pyrimidin-6(7H)-one]: it took 90 nM to reach a half-maximal effect (EC50). In addition, for the setting “percent activation relative to standard Compound A in CHO-K1/sGC cells”, the “% Act.” value was determined as 151%.

For the molecule `CC1(c2ccc(F)cc2)C(=O)Nc2nc(-c3cn4ccnc4c(-c4ccc(C5CC5)cc4)n3)nc(N)c21` (centres unmarked) [Example 6A, 4-amino-2-(8-(4-cyclopropylphenyl)imidazo[1,2-a]pyrazin-6-yl)-5-(4-fluorophenyl)-5-methyl-5H-pyrrolo[2,3-d]pyrimidin-6(7H)-one], the Emax stood at 115% and it took 559 nM to reach a half-maximal effect (EC50).

In the case of `CC1(c2ccc(F)cc2F)C(=O)Nc2nc(-c3cn4ccnc4c(CCC(F)(F)F)n3)nc(N)c21` (centres unmarked) [Example 180A, 4-amino-5-(2,4-difluorophenyl)-5-methyl-2-(8-(3,3,3-trifluoropropyl)imidazo[1,2-a]pyrazin-6-yl)-5H-pyrrolo[2,3-d]pyrimidin-6(7H)-one], the Emax is 115% and the midpoint of the response, the EC50, lay at 39 nM.

`CC1(c2ccc(F)cc2)C(=O)Nc2nc(-c3cn4ccnc4c(Cc4ccc(F)c(F)c4)n3)nc(N)c21` (centres unmarked) [Example 96A, 4-amino-2-(8-(3,4-difluorobenzyl)imidazo[1,2-a]pyrazin-6-yl)-5-(4-fluorophenyl)-5-methyl-5H-pyrrolo[2,3-d]pyrimidin-6(7H)-one]: the Emax was 106% and the EC50 amounted to 4 nM.

On to `CCCCc1nc(-c2nc(N)c3c(n2)NC(=O)C3(c2ccc(Cl)cc2)C2CCC2)cn2ccnc12` (single isomer, unassigned) [Example 358B, 4-amino-2-(8-butylimidazo[1,2-a]pyrazin-6-yl)-5-(4-chlorophenyl)-5-cyclobutyl-5H-pyrrolo[2,3-d]pyrimidin-6(7H)-one], for which the Emax amounted to 120% and the response was half-maximal at 20 nM (EC50).

Regarding `CC1(c2ccccc2)C(=O)Nc2nc(-c3cn4c(Cl)cnc4c(CCC(F)(F)C(F)(F)F)n3)nc(N)c21` (centres unmarked) [Example 256B, 4-amino-2-(3-chloro-8-(3,3,4,4,4-pentafluorobutyl)imidazo [1,2-a]pyrazin-6-yl)-5-methyl-5-phenyl-5H-pyrrolo[2,3-d]pyrimidin-6(7H)-one], the Emax was found to be 86% and it took 24 nM to reach a half-maximal effect (EC50).

In the case of `CC1(c2ccc(F)cc2)C(=O)Nc2nc(-c3cn4cc(C(F)(F)F)nc4c(Cc4ccc(F)cc4)n3)nc(N)c21` (centres unmarked) [Example 155A, 4-amino-2-(8-(4-fluorobenzyl)-2-(trifluoromethyl)imidazo[1,2-a]pyrazin-6-yl)-5-(4-fluorophenyl)-5-methyl-5H-pyrrolo[2,3-d]pyrimidin-6(7H)-one], the Emax came out at 112% and the EC50 was found to be 130 nM.

In the case of `Cc1cncc(C2(C3CC3)C(=O)Nc3nc(-c4cn5ccnc5c(CCCC(F)(F)F)n4)nc(N)c32)n1` (single isomer, unassigned) [Example 365B, 4-amino-5-cyclopropyl-5-(6-methylpyrazin-2-yl)-2-(8-(4,4,4-trifluorobutyl)imidazo[1,2-a]pyrazin-6-yl)-5H-pyrrolo[2,3-d]pyrimidin-6(7H)-one], the Emax was found to be 108% and the midpoint of the response, the EC50, lay at 704 nM.

Consider `Cc1nc(C2(C3CC3)C(=O)Nc3nc(-c4cn5ccnc5c(CCCC(F)(F)F)n4)nc(N)c32)ccc1Cl` (single isomer, unassigned) [Example 377B], for which the Emax was determined as 90% and the response was half-maximal at 86 nM (EC50).

Regarding `CN(C)c1nc(-c2cn3ccnc3c(CCC(F)(F)C(F)(F)F)n2)nc2c1C(C)(c1ccc(F)cc1)C(=O)N2` (centres unmarked) [Example 308A, 4-(dimethylamino)-5-(4-fluorophenyl)-5-methyl-2-(8-(3,3,4,4,4-pentafluorobutyl)imidazo[1,2-a]pyrazin-6-yl)-5H-pyrrolo[2,3-d]pyrimidin-6(7H)-one], the Emax came to 126% and a half-maximal response (EC50) required 281 nM.

For the molecule `CC1(c2cc(F)cc(F)c2)C(=O)Nc2nc(-c3cn4ccnc4c(CCC(F)(F)F)n3)nc(N)c21` (centres unmarked) [Example 195B, 4-amino-5-(3,5-difluorophenyl)-5-methyl-2-(8-(3,3,3-trifluoropropyl)imidazo[1,2-a]pyrazin-6-yl)-5H-pyrrolo[2,3-d]pyrimidin-6(7H)-one], the Emax is 114% and the EC50 was found to be 312 nM.

`CC1(c2ccc(F)cc2)C(=O)Nc2nc(-c3cn4ccnc4c(CCC(F)(F)C(F)(F)F)n3)nc(N3CCOCC3)c21` (centres unmarked) [Example 310A, 5-(4-fluorophenyl)-5-methyl-4-morpholino-2-(8-(3,3,4,4,4-pentafluorobutyl)imidazo[1,2-a]pyrazin-6-yl)-5H-pyrrolo[2,3-d]pyrimidin-6(7H)-one]: the Emax came to 77% and the EC50 was found to be 45 nM.

For `CC(C)(C)CCc1nc(-c2nc(N)c3c(n2)NC(=O)C3(C)c2ccc(Cl)cc2)cn2ccnc12` (centres unmarked) [Example 120A, 4-amino-5-(4-chlorophenyl)-2-(8-(3,3-dimethylbutyl)imidazo[1,2-a]pyrazin-6-yl)-5-methyl-5H-pyrrolo[2,3-d]pyrimidin-6(7H)-one], the Emax is 112% and the response was half-maximal at 31 nM (EC50).

As to `CC1(c2ccc(F)cn2)C(=O)Nc2nc(-c3cn4c(Br)cnc4c(CCC(F)(F)C(F)(F)F)n3)nc(N)c21` (centres unmarked) [Example 262B, 4-Amino-2-(3-bromo-8-(3,3,4,4,4-pentafluorobutyl)imidazo[1,2-a]pyrazin-6-yl)-5-(5-fluoropyridin-2-yl)-5-methyl-5H-pyrrolo[2,3-d]pyrimidin-6(7H)-one], the Emax amounted to 105% and the EC50 was found to be 236 nM.

Take `CC1(c2ccc(Cl)c(F)c2)C(=O)Nc2nc(-c3cn4ccnc4c(CC4CCC4)n3)nc(N)c21` (centres unmarked) [Example 113B, 4-amino-5-(4-chloro-3-fluorophenyl)-2-(8-(cyclobutylmethyl)imidazo [1,2-a]pyrazin-6-yl)-5-methyl-5H-pyrrolo[2,3-d]pyrimidin-6(7H)-one]: the Emax came to 138% and it took 5 nM to reach a half-maximal effect (EC50).

In the case of `CC1(c2ccc(F)cc2)C(=O)Nc2nc(-c3cn4cc(C(F)(F)F)nc4c(Cc4cccc(F)c4F)n3)nc(N)c21` (centres unmarked) [Example 148A, 4-amino-2-(8-(2,3-difluorobenzyl)-2-(trifluoromethyl)imidazo[1,2-a]pyrazin-6-yl)-5-(4-fluorophenyl)-5-methyl-5H-pyrrolo[2,3-d]pyrimidin-6(7H)-one], the Emax was found to be 148% and it took 24 nM to reach a half-maximal effect (EC50).

For `CC1(c2ccc(Cl)cc2)C(=O)Nc2nc(-c3cn4ccnc4cn3)nc(NCC3CC3)c21` (centres unmarked) [Example 283A, 5-(4-chlorophenyl)-4-((cyclopropylmethyl)amino)-2-(imidazo[1,2-a]pyrazin-6-yl)-5-methyl-5H-pyrrolo[2,3-d]pyrimidin-6(7H)-one], the Emax amounted to 163% and the EC50 was determined as 56 nM.
